≈ marks a conversion by molar mass, not a printed value.

Conditions in the first data set: not given
Consider `CN(C)c1ccc(C(=O)O)cc1`, for which the solubility (commonly the concentration that dissolves in the medium under given conditions) worked out at 0.4 mM (≈ 66.1 µg/mL).
For the compound `CC1=C(C(=O)O)N2C(=O)[C@@H](NC(=O)[C@H](N)C3=CCC=CC3)[C@H]2SC1`, the solubility turned out to be 61 mM (≈ 21300 µg/mL).
Still for that read-out and setting: as for `c1ccc2c(c1)-c1cccc3c1c-2cc1ccccc13`, the figure is 5.94e-06 mM (≈ 0.0015 µg/mL); as for `COc1cc(NS(=O)(=O)c2ccc(N)cc2)nc(OC)n1`, 1.11 mM (≈ 343 µg/mL); as for `N[C@@H](C(=O)N[C@@H]1C(=O)N2C(C(=O)O)=C(Cl)CS[C@H]12)c1ccccc1`, 27.2 mM (≈ 10000 µg/mL).

The same data set, now with this note: 20 °C.
`CCCCOC(=O)C(C)O` (configuration not stated) returned a solubility of 274 mM (≈ 40000 µg/mL).
On the same count and under the same terms, as for `CCNc1nc(NC(C)(C)C)nc(OC)n1`, the figure is 0.577 mM (≈ 130 µg/mL); as for `CCC(Cl)(Cl)[N+](=O)[O-]`, 31.7 mM (≈ 5000 µg/mL).
Still for that read-out and setting: the figure for `Clc1ccc(-c2cc(Cl)c(Cl)c(Cl)c2Cl)cc1Cl` is 1.48e-05 mM (≈ 0.00533 µg/mL); for `c1ccc(C(c2ccccc2)(c2ccccc2)N2CCOCC2)cc1` it is 6.07e-05 mM (≈ 0.02 µg/mL); for `COC(=O)c1cccnc1` it is 347 mM (≈ 47600 µg/mL).
On the same count and under the same terms, the figure for `COc1ccc(Oc2ccc(NC(=O)N(C)C)cc2)cc1` is 0.0699 mM (≈ 20 µg/mL); for `Oc1ccc2c(c1)CCCC2` it is 10.1 mM (≈ 1500 µg/mL).
For `COC(=O)c1cc(Cl)cc(N)c1Cl`, the solubility stood at 0.545 mM (≈ 120 µg/mL). Against the preceding compound, the solubility is about 19-fold lower.
Still for that read-out and setting: the figure for `CCCCOC(=O)CC` is 11.5 mM (≈ 1500 µg/mL); for `O=C(O)C=Cc1ccco1` it is 14.5 mM (≈ 2000 µg/mL).
Same read-out and setting: the figure for `N[C@@H](CSSC[C@H](N)C(=O)O)C(=O)O` is 0.791 mM (≈ 190 µg/mL).
Same read-out and setting: as for `CN(C)C(=O)NC1CCCCCCC1`, the figure is 6.05 mM (≈ 1200 µg/mL).

Staying with this data set, now noted: 21 °C.
`CCOc1ccc(NC(N)=O)cc1` registered a solubility of 6.71 mM (≈ 1210 µg/mL).

The data set is the same for the next values; noted with them: 24 °C.
`CN(C)CCC=C1c2ccccc2CCc2ccccc21` gave a solubility of 0.035 mM (≈ 9.71 µg/mL).
Still for that read-out and setting: as for `NC(=O)CCl`, the figure is 962 mM (≈ 90000 µg/mL).

The same data set, now with this note: 25 °C.
`C[C@@H](O)C(N)=O` displayed a solubility of 8780 mM (≈ 782000 µg/mL).
Same read-out and setting: the figure for `Clc1cc(Cl)c(Cl)c(Cl)c1` is 0.0236 mM (≈ 5.1 µg/mL); for `CN(C)C(=O)N[C@@H]1C[C@@H]2C[C@H]1[C@@H]1CCC[C@H]21` it is 0.675 mM (≈ 150 µg/mL).
Compound `CNC(=O)ON=C(C)SC` came in with a solubility of 358 mM (≈ 58000 µg/mL).
On the same count and under the same terms, as for `C=CCBr`, the figure is 31.7 mM (≈ 3830 µg/mL).
On the same count and under the same terms, the figure for `c1ccc(Cc2ccccc2)cc1` is 0.0838 mM (≈ 14.1 µg/mL).
`O=C(O)COc1ccc(Cl)c(Cl)c1` showed a solubility of 2.07 mM (≈ 457 µg/mL).
The compound `CCOP(=O)(OCC)OCC` yielded a solubility of 2740 mM (≈ 500000 µg/mL).
Same read-out and setting: the figure for `Cc1cc(Cl)ccc1OCC(=O)O` is 3.14 mM (≈ 630 µg/mL); for `CCC#CC(C)C` it is 1.8 mM (≈ 173 µg/mL).
On to `C#CCC`, for which the solubility came to 53.1 mM (≈ 2870 µg/mL).
Same read-out and setting: the figure for `CCCCCCC(=O)O` is 21.6 mM (≈ 2820 µg/mL).
`CCOP(=S)(OCC)O/N=C(\C#N)c1ccccc1` registered a solubility of 0.0179 mM (≈ 5.35 µg/mL).
Same read-out and setting: the figure for `CCCC(C)(C)C` is 0.0439 mM (≈ 4.4 µg/mL); for `C(=C\c1ccccc1)/c1ccccc1` it is 0.00161 mM (≈ 0.291 µg/mL).
The same measure, in the same setting: the figure for `O=c1cc[nH]c(=S)[nH]1` is 5.53 mM (≈ 709 µg/mL).
On the same count and under the same terms, as for `O=C(O)c1ccccc1F`, the figure is 51.4 mM (≈ 7200 µg/mL); as for `CCC1(C2=CCCCC2)C(=O)NC(=O)NC1=O`, 6.77 mM (≈ 1600 µg/mL); as for `Cc1cccc(C)c1NC(=O)c1cc(S(N)(=O)=O)c(Cl)cc1O`, 0.163 mM (≈ 58 µg/mL).
`Clc1ccc2c(c1)Oc1cc(Cl)ccc1O2` returned a solubility of 6.6e-05 mM (≈ 0.0167 µg/mL).
On the same count and under the same terms, as for `Cc1c2ccccc2c(C)c2ccccc12`, the figure is 0.000271 mM (≈ 0.056 µg/mL); as for `CC(=O)OCC(=O)[C@@]1(O)CC[C@H]2[C@@H]3CCC4=CC(=O)CC[C@]4(C)[C@H]3C(=O)C[C@@]21C`, 0.0497 mM (≈ 20 µg/mL).
On the same count and under the same terms, as for `Clc1ccc(-c2c(Cl)cc(Cl)cc2Cl)cc1`, the figure is 0.000312 mM (≈ 0.0911 µg/mL); as for `Cc1c[nH]c(=S)[nH]c1=O`, 3.58 mM (≈ 509 µg/mL).
`Cc1cccc2c1ccc1ccccc12` had a solubility of 0.0014 mM (≈ 0.269 µg/mL).
Still for that read-out and setting: the figure for `CC(C)CCBr` is 1.3 mM (≈ 196 µg/mL).
Still for that read-out and setting: as for `CCSCCSP(=S)(OC)OC`, the figure is 0.812 mM (≈ 200 µg/mL).

Still in this data set, the particulars now being: 27 °C.
In turn, `Cc1cc2c3ccccc3ccc2c2ccccc12` showed a solubility of 0.000268 mM (≈ 0.065 µg/mL).

The data set is the same for the next values; noted with them: 28 °C.
As for `c1ccc2c(c1)CCCC2`, the solubility was determined as 0.354 mM (≈ 46.8 µg/mL).

The same data set, now with this note: 30 °C.
With `CCCCn1c(=O)c2c(ncn2C)n(C)c1=O`, the solubility stood at 23.7 mM (≈ 5600 µg/mL).
`COc1c2occc2cc2ccc(=O)oc12` showed a solubility of 0.22 mM (≈ 47.6 µg/mL).

These data come from the OPERA property sets (Mansouri et al. 2018).
